Data: patent US8148387B2, “AKT and P70 S6 kinase inhibitors” (Eli Lilly and Company, priority 2008, dated 2012)
Several values for one entry are separate records, joined by “and”; a condition that tells them apart may be missing. Equal entries are not always repeated. Blank lines part the entries; values can stand above or below the molecule they belong to.

Columns and labels:
[1] = biological target: T1, human HERG K+ channel (Homo sapiens, UniProt Q12809); assay: HERG Assay, [3H]astemizole radioligand binding; conditions: transfected HEK-293 cell membranes, 2 nM [3H]astemizole
T1 construct: expressed in transfected cells; host or cells: HEK-293
T1 sequence (Q12809 whole entry): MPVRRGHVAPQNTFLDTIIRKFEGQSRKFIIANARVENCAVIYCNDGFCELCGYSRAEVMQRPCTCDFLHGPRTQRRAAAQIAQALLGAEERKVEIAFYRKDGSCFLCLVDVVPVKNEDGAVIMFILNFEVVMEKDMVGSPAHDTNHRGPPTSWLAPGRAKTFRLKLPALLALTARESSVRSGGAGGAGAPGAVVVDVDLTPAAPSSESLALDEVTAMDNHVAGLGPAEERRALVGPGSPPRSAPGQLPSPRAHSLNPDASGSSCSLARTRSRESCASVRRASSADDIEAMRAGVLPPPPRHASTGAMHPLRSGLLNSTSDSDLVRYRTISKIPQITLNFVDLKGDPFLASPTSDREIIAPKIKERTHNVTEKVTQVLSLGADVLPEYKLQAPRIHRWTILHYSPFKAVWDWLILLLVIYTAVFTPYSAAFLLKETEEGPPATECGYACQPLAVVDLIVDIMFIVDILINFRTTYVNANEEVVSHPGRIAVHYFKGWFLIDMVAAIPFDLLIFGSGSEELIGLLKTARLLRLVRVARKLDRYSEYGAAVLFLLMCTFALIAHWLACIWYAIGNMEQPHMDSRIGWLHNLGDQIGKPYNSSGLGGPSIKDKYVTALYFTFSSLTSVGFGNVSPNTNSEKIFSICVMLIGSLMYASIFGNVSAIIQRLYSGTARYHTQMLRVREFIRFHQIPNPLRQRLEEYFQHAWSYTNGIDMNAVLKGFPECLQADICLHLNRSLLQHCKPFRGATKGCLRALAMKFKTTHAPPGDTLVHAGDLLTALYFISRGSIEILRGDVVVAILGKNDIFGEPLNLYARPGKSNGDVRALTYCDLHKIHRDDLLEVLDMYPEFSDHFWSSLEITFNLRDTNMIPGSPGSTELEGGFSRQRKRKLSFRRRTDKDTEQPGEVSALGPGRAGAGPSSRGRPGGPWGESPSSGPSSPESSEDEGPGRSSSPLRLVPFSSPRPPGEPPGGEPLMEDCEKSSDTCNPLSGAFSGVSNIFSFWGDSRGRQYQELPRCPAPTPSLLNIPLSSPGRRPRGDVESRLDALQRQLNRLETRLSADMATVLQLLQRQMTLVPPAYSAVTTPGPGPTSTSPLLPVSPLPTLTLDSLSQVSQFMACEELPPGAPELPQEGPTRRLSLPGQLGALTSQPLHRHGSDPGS
Method: Evaluation of the affinity of compounds for the human HERG K^+ channel in transfected HEK-293 cells is determined in a radioligand binding assay. Cell membrane homogenates (40 μg protein) are incubated for 75 min at 22° C. with 2 nM [^3H]astemizole in the absence or presence of the test compound in a buffer containing 50 mM Tris-HCl (pH 7.4), 10 mM KCl, 1.2 mM MgCl2 and 0.1% Bovine serum albumin (BSA). Nonspecific binding is determined in the presence of 10 μM astemizole. Following incubation, the samples are filtered rapidly under vacuum through glass fiber filters (GF/B, Packard) presoaked with 0.3% PEI and rinsed several times with ice-cold 50 mM Tris-HCl using a 96-sample cell harvester (Unifilter, Packard). The filters are dried then counted for radioactivity in a scintillation counter (Topcount, Packard) using a scintillation cocktail (Microscint 0, Packard). The results are expressed as a percent inhibition of the control radioligand specific binding. The standard reference compound is astemizole, which is tested in each experiment at several concentrations to obtain a competition curve from which its IC50 is calculated. (Finalayson et al, [^3H]dofetilide binding in SHSYSY and HEK293 cells expressing a HERG-like K^+ channels, Eur. J. Pharmacol., 412: 203 (2001)).

[2] = tested on: CAKI-1; assay: Combination studies, fixed ratio method, cell proliferation, CAKI-1; type: cell-based; conditions: combination with Rapamycin
Text: (§1) The combination studies use the fixed ratio method, where the compound of the present invention and the other therapeutic agent are present in fixed ratios of concentrations corresponding to the IC50 equivalents of single agents. The readout for the combination studies is cell proliferation in respective cell lines using Cell Titer Glo reagents. Controls are processed similarly but without the compound of the present invention or the other therapeutic agent. Analysis of the data is done according to the method described in Zhao et. al., Clinical Cancer Research, 10, 7994-8004 (2004) utilizing a web based tool. A combination index is calculated for a range of cell proliferation inhibition activity levels according to the equation below. Combination Index at activity level x=[Concentration of other therapeutic agent in the combination at the activity level x/ICx of the other therapeutic agent]+[Concentration of the compound of the present invention in the combination at the activity level x/ICx of the compound of the present invention] For clarity, Combination index values at 50% inhibition are summarized below.

[3] = tested on: BT474; assay: Cell Proliferation Assay (CellTiter-Glo), BT474; type: cell-based; conditions: Homo sapiens, BT-474; BT474, 72 hr
Method: (§2) The proliferation assay uses the CellTiter-Glo Luminescent Cell Viability Assay System (commercially available from Promega) to determine the cell number of viable cells in culture based on quantitation of the ATP present, which signals the presence of metabolically active cells.
(§3) The cells are plated in 96-well plate at 2000 cells/well in volume of 50 μL medium (DMEM, 10% FBS, 25 mM HEPES, 1.0 mM Sodium Pyruvate, and 0.1 mM Non Essential Amino Acids) except column 1 with medium only as blank control. The plates are incubated overnight at 37° C. and 5% CO2. On the next day, compound stocks are prepared at 40 mM in DMSO (500×) and serially diluted in DMSO in a 96-well round bottom polypropylene plate. Compounds are assayed at 10 concentrations in duplicate, 4 compounds per plate.
(§4) 4 μL of the serial DMSO dilutions are transferred to a 96 deep-well plate and 1 mL complete culture medium is added to create 2× stock for dosing. 50 μL of each 2× dosing stock is gently transferred to the corresponding well of the cell plate resulting in a 0.2% DMSO concentration and a 100 μL final volume. […] medium are added to the Control columns (Column 12) and background columns (Column 1). Cells are incubated with compound for at 37° C., 5% CO2 for 72 hr. […]

[4] = tested on: 786-0; assay: Combination studies, fixed ratio method, cell proliferation, 786-0; type: cell-based; conditions: combination with Rapamycin
Text: as §1

[5] = tested on: 786-O; assay: Cell Proliferation Assay (CellTiter-Glo), 786-O; type: cell-based; conditions: Homo sapiens, 786-0, 72 hr
Method: as §2, §3, §4

[6] = tested on: PC3; assay: Cell Proliferation Assay (CellTiter-Glo), PC3; type: cell-based; conditions: Homo sapiens, PC-3; PC3, 72 hr
Method: as §2, §3, §4

[7] = tested on: OPM-2; assay: Cell Proliferation Assay (CellTiter-Glo), OPM-2; type: cell-based; conditions: Homo sapiens; OPM-2, 72 hr
Method: as §2, §3, §4

[8] = tested on: Calu6; assay: Combination studies, fixed ratio method, cell proliferation, Calu6; type: cell-based
Text: as §1

[9] = tested on: H1155; assay: Combination studies, fixed ratio method, cell proliferation, H1155; type: cell-based
Text: as §1

[10] = tested on: HCT116; assay: Combination studies, fixed ratio method, cell proliferation, HCT116; type: cell-based
Text: as §1

[11] = tested on: NCIH460; assay: Combination studies, fixed ratio method, cell proliferation, NCIH460; type: cell-based
Text: as §1

[12] = tested on: H1155; assay: Cell Proliferation Assay (CellTiter-Glo), H1155; type: cell-based; conditions: Homo sapiens, NCI-H1155; H1155, 72 hr
Method: as §2, §3, §4

[13] = tested on: ACHN; assay: Combination studies, fixed ratio method, cell proliferation, ACHN; type: cell-based; conditions: combination with Rapamycin
Text: as §1

[14] = tested on: A2780; assay: Combination studies, fixed ratio method, cell proliferation, A2780; type: cell-based
Text: as §1

[15] = tested on: U87MG; assay: Cell Proliferation Assay (CellTiter-Glo), U87MG; type: cell-based; conditions: Homo sapiens, U-87 MG, 72 hr
Method: as §2, §3, §4

[16] = tested on: HCT116; assay: Cell Proliferation Assay (CellTiter-Glo), HCT116; type: cell-based; conditions: Homo sapiens, HCT-116; HCT116, 72 hr
Method: as §2, §3, §4

[17] = tested on: A2780; assay: Cell Proliferation Assay (CellTiter-Glo), A2780; type: cell-based; conditions: Homo sapiens; A2780, 72 hr
Method: as §2, §3, §4

[18] = tested on: 69AR; assay: Cell Proliferation Assay (CellTiter-Glo), 69AR; type: cell-based; conditions: 72 hr
Method: as §2, §3, §4

[19] = tested on: H69; assay: Cell Proliferation Assay (CellTiter-Glo), H69; type: cell-based; conditions: Homo sapiens, NCI-H69; H69, 72 hr
Method: as §2, §3, §4

SMILES: O=C1Cc2c(ncnc2N2CCC(c3nc(-c4ccc(F)c(F)c4)cn3CCN3CCCC3)CC2)N1 [Example 37, 4-{4-[4-(3,4-Difluoro-phenyl)-1-(2-pyrrolidin-1-yl-ethyl)-1H-imidazol-2-yl]-piperidin-1-yl}-5,7-dihydro-pyrrolo[2,3-d]pyrimidin-6-one]
IC50 [1]: 13.9 µM

IC50 [3]: 7.9 µM | IC50 [5]: 3.4 µM | IC50 [6]: 6.2 µM | IC50 [12]: 4.9 µM | IC50 [15]: > 10 µM | IC50 [16]: 7.5 µM | IC50 [17]: 5.9 µM
SMILES: CN(C)CCn1cc(-c2ccc(F)c(C(F)(F)F)c2)nc1C1CCN(c2ncnc3c2CC(=O)N3)CC1 [Example 45, 4-{4-[1-(2-Dimethylamino-ethyl)-4-(4-fluoro-3-trifluoromethyl-phenyl)-1H-imidazol-2-yl]piperidin-1-yl}-5,7-dihydro-pyrrolo[2,3-d]-pyrimidin-6-one]
COMBINATION INDEX AT 50% INHIBITION [2]: 0.33 | COMBINATION INDEX AT 50% INHIBITION [4]: 0.41 | IC50 [7]: 2.3 µM | COMBINATION INDEX AT 50% INHIBITION ([8]; combination with Cisplatin): 0.57 | COMBINATION INDEX AT 50% INHIBITION ([8]; combination with Docetaxel): 0.94 | COMBINATION INDEX AT 50% INHIBITION ([8]; combination with Erlotinib): 0.10 | COMBINATION INDEX AT 50% INHIBITION ([8]; combination with Gemcitabine): 1.13 | COMBINATION INDEX AT 50% INHIBITION ([8]; combination with Tasisulam): 1.19 | COMBINATION INDEX AT 50% INHIBITION ([9]; combination with Cisplatin): 0.58 | COMBINATION INDEX AT 50% INHIBITION ([9]; combination with Erlotinib): 0.43 | COMBINATION INDEX AT 50% INHIBITION ([9]; combination with Gemcitabine): 0.87 | COMBINATION INDEX AT 50% INHIBITION ([10]; combination with Cetuximab): 2.02 | COMBINATION INDEX AT 50% INHIBITION ([10]; combination with Irinotecan): 0.82 | COMBINATION INDEX AT 50% INHIBITION ([11]; combination with Cisplatin): 0.56 | COMBINATION INDEX AT 50% INHIBITION ([11]; combination with Docetaxel): 0.67 | COMBINATION INDEX AT 50% INHIBITION ([11]; combination with Erlotinib): 0.38 | COMBINATION INDEX AT 50% INHIBITION ([11]; combination with Gemcitabine): 0.86 | COMBINATION INDEX AT 50% INHIBITION ([11]; combination with Pemetrexed): 0.97 | COMBINATION INDEX AT 50% INHIBITION [13]: 0.12 | COMBINATION INDEX AT 50% INHIBITION ([14]; combination with Cisplatin): 1.04 and 0.64 | COMBINATION INDEX AT 50% INHIBITION ([14]; combination with Doxorubicin•HCl): 0.65 and 0.96 | IC50 [18]: 9.4 µM | IC50 [19]: 6.3 µM
